Literature values as cited in patent US20140004043A1, “CRYPTOPHANE DERIVATIVES AND METHODS OF USE THEREOF” (Georgetown Univeristy, priority 2010, published 2014).
Where two headings read alike, the source gives them in different places.

Settings: cited from earlier work

Row | Structure (SMILES) | binding constant with xenon Ka (293 K in 1,1,2,2-tetrachloroethane-d2 (TCE-d2)) | Ka, association constant for xenon binding (TCE-d2, 293 K) | Ka, association constant for xenon binding (TCE-d2, 278 K (footnote d)) | binding constant Ka of the xenon complex (organic solution, 278K)
1 | c1cc2c3cc1OCOc1ccc4c(c1)Cc1ccc5cc1Cc1ccc(cc1C4)OCOc1ccc(c(c1)Cc1ccc(cc1C2)OCO5)C3 (racemic) [Cryptophane 1, (±)-cryptophane-1,1,1] | ~10,000 M^−1 | 10000 M⁻¹ | – | –
2 | COc1cc2c3cc1OCCOc1cc4c(cc1OC)Cc1cc5c(OC)cc1Cc1cc(c(OC)cc1C4)OCCOc1cc(c(cc1OC)C3)Cc1cc(OC)c(cc1C2)OCCO5 [A (or 222), (±)-cryptophane-A] | – | – | 3300^d | 3900 M⁻¹
